Experimental data: patent US20180207228A1, “PEPTIDE COMBINATIONS AND USES THEREOF FOR TREATING GRASS ALLERGY” (ALK-Abelló A/S, priority 2015, published 2018)
Where no end group is shown, it is not given here.

Assays:
[1] = Peptide solubility by visual inspection; type: physicochemical; for Visual inspection after centrifugation pH 7: key: ok: clear solution; +: very small precipitation only visible with a magnifier; ++: precipitation/turbid solution; +++: more precipitation/turbid solution
Experimental: Water (pH 3-5) • 2. 250 mM D-Mannitol and 25 mM sodium acetate, pH 4.5 • 3. 250 mM D-Mannitol and 25 mM sodium phosphate, pH 7.0 • 4. […] Water (pH 3-5) • 2. 250 mM D-Mannitol and 25 mM sodium acetate, pH 4.5 • 3. 250 mM D-Mannitol and 25 mM sodium phosphate, pH 7.0 • 4. […] A subset of the peptides was selected as candidate peptides for a final peptide mixture. […] During the solubility studies the peptide-containing solutions were inspected visually before and after filtration for turbidity, and presence of particles/aggregates. In addition, presence of turbidity/particles/aggregates was also detected by optical density (OD) or absorbance of filtered material, but might also be detected by size-exclusion chromatography. Furthermore, Sub-visual particles may also be detected by dynamic light scattering (DLS) analysis on filtered and non-filtered peptide containing solutions. Samples were furthermore subjected to centrifugation to allow for the possible visual inspection of pelleted material.

[2] = test system: allergen specific T cells; test: T cell proliferation assay (72 h) on donor derived T cell lines (TCL02/TCL03); type: cell-based, human; details: for T cell response in % of the donors tested: single peptide; for Proliferation % donor coverage (TCL-02 DK1): T cell lines TCL-02 DK1, 30 donors, hit criteria SI>=2, CPM>=1000; for Proliferation strength (TCL-02 DK1): T cell lines TCL-02 DK1, strength of response (average relative magnitude)
Outline: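 Overlapping 20-mer and selected 15-mer grass allergen peptides were screened for proliferation using TCL02 (day 24) or TCL03 (day 34) lines. Lines came from grass-allergic donors' CD8-depleted PBMCs, primed with natural allergen mix and expanded with irradiated autologous or allogeneic APCs, PHA-P 0.5 μg/ml and rIL-2.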

[3] = 3 mg/mL, acetate salt, non-filtered, 250 mM D-Mannitol and 25 mM sodium phosphate, pH 7.0

solubility, 1st round of solubility screening [1] | Visual inspection after 60 min pH 4.5 ([1]; 3 mg/mL, acetate salt, non-filtered, 250 mM D-Mannitol and 25 mM sodium acetate, pH 4.5) | Visual inspection after centrifugation pH 4.5 ([1]; 3 mg/mL, acetate salt, non-filtered, 250 mM D-Mannitol and 25 mM sodium acetate, pH 4.5, after centrifugation) | Visual inspection after 60 min pH 7 [1, 3] | Visual inspection after centrifugation pH 7 ([1]; 3 mg/mL, acetate salt, non-filtered, 250 mM D-Mannitol and 25 mM sodium phosphate, pH 7.0, after centrifugation) | Substance | solubility in aqueous solutions [1] | T cell response in % of the donors tested [2] [%] | Proliferation % donor coverage (TCL-02 DK1) [2] [%] | Proliferation strength (TCL-02 DK1) [2]
 |  |  |  |  | AYESYKFIPALEAAVKQAYA-OH [peptide 285] | surprisingly good solubility in aqueous solutions | ~50 |  | 
soluble |  |  |  |  | TDDNEEPIAPYHFDLSGHAF-OH [peptide 204] | surprisingly good solubility in aqueous solutions | ~40 |  | 
soluble | + particles, | ++ | particles + | +++ | WGAIWRIDTPDKLTGPFTVR-OH [peptide 211] | surprisingly good solubility in aqueous solutions | ~40 |  | 
soluble |  |  |  |  | PANDKFTVFEAAFNNAIKAS-OH [compound 70] |  |  | 46.67 | 8.10
 |  |  |  |  | VATLSEALRIIAGTLEVHAV-OH [compound 67] |  |  | 43.33 | 7.30
soluble |  |  | tread + |  | STGGAYESYKFIPALEAAVK-OH [compound 71] | surprisingly good solubility in aqueous solutions | ~50 | 46.67 | 8.20
soluble |  |  |  |  | DKYRTFVATFGAASNKAFAE-OH [peptide 231] |  | ~40 |  | 
